Several values for one entry are separate records, joined by “and”; a condition that tells them apart may be missing. Equal entries are not always repeated. Square brackets hold non-standard residues; d marks the D form. Peptide text beside a SMILES is read from it. Nle = CCCC[C@H](N)C(=O)O
Experiments:
Assay in all cases: Apoptosis by annexin V-FITC staining, flow cytometry
Type in all cases: cell-based
[1] = test system: HLF cells; conditions: for Percent Annexin V Positive Staining: 26 hours post treatment
Description: (§1) P53 was administered to the cells by the use of the replication defective adenoviral vector ACN53 described in Wills, et al., supra. The effect of varying concentrations of rAd-p53 (from […] to 2×10^9 rAd-p53 particles/ml of solution) was investigated in combination with CI-1 in a range of 5–20 μm. The effects of individual and combination treatment was determined in the in DLD1, RKO, HLF and SK-Hep1 cells was investigated in substantial accordance with the teaching of Examples 2 and 3 herein. The percentage of apoptotic cells was determined at 17 hours post treatment (with the exception of U87 cells (24 hours) and HeLa cells (68 hours)) with annexin V positive staining. The results are presented in graphical format in FIG. 3 of the attached drawings. In brief, the results were as follows:
To quantitate the increased efficacy of rAd-p53 induced cell killing in tumor cell lines in response to CI-1 treatment, HLF cells were infected with increasing concentrations of rAd-p53 with or without 10 μM CI-1, and assayed for percentage apoptotic cells by annexin V-FITC staining 42 hours post-treatment in substantial accordance with the teaching of Example 3 herein. […] No increase in annexin V-FITC positive cells was detected at 1×10^5 particles/ml rAd-p53 with or without 10 μM CI-1. At 1×10^6 particles/ml rAd-p53, the percentage apoptotic cells without CI-1 was 14%, while 40% of annexin V positive cells was detected when cell were treated with 10 μM CI-1. At a concentration of 1×10^7 ACN53 particles/ml, 17% annexin V positive without and 63% with 10 μM CI-1 was detected. At 1×10^8 particles/ml, 52% were annexin V positive without and 70% positive with inhibitor treatment. At a dose of 1×10^9 particles of rAd-p53, however, the percentage annexin V positive was about the same for both 77% without and 74% with 10 μM CI-1. […] concentration of rAd-p53 was sufficient to induce approximately 50% cell death, while only a 1×10^7 particle/ml concentration rAd-p53 was needed to induce approximately the same percentage of cell death when 10 μM CI-1 as added.
(§2) The effect of an inhibitor of μ-calpains, CI-1 (N-acetyl-leu-leu-norleucinal), was investigated for its ability to enhance p53 mediated apoptosis in tumor cell lines having p53+ and p53− status listed in Table1. Each cell line was treated with 5–50 μM CI-1 for 17–26 hours. To detect a G0/G1 block, bromodeoxyuridine (BrdU) incorporation followed by flow cytometric analysis was done 17 hours post-treatment as described in Example 4 herein. […] The results of these experiments are presented in FIGS. 1 and 2 of the attached drawings. In FIG. 1, each point on the graph represents percentage annexin V positive after background percentage (DMF alone) was subtracted.
(§3) An aliquot containing approximately 1×10^6 cells of each type was placed in a T-225 flask. The effect of varying concentrations of rAd-p53 (from 1×10^7 to 2×10^9ACN53 particles/ml of solution) was investigated in combination with CI-1 in a range of 5–20 μM. In each instance, the cell line was infected with 1×10^7–1×10^9 particles/ml of cell culture with the ACN53 using the empty cassette virus (ZZCB) as a control. In each instance, the cells were exposed to the virus for a period of one hour. At the end of this time, the virus was washed off the from the cells and fresh media containing an appropriate concentration of CI-1 was added.
HLF cells were infected at increasing log concentrations of rAd-p53 ranging from 1×10^5 to 1×10^9 for one hour at which time virus was washed off and replaced with fresh media (viral infection with no treatment) or with 10 μM calpain inhibitor 1. Cells were assayed for apoptosis by annexin V-FITC staining at 24 and 42 hours post-infection.
CI-1 was obtained from Boehringer-Mannheim Biochemicals (Indianapolis, Ind.). The CI-1 containing media was prepared as follows. CI-1 was diluted in dimethylformamide (DMF) to a concentration of 33.3 μM/μl. […]

[2] = test system: DLD1 cells; conditions: for Percent Annexin V Positive Staining: 26 hours post treatment
Description: as §1, §2, §3
(§4) CI-1 was obtained from Boehringer-Mannheim Biochemicals (Indianapolis, Ind.). The CI-1 containing media was prepared as follows. CI-1 was diluted in dimethylformamide (DMF) to a concentration of 33.3 μM/μl. The CI-1 solution in DMF was added to achieve a final concentration in the media of 5 or 10 μM final concentration of CI-1. An equivalent volume of DMF alone was added to the control cells. Calpain inhibitor 2, N-acetyl-leu—leu-methioninal (Boehringer Mannheim) was added to cell lines at 5–50 μM final concentration with or without rAd-p53 for 26 hours.
(§5) At a time of 17 (or 26 hours) post infection, the percentage of cells undergoing apoptosis was determined by convential apoptotic markers. Apoptosis was monitored visually by observing blebbed nuclei characteristic of apoptosis, by propidium iodide staining (using propidium iodide commercially available from Molecular Probes, Inc.) followed by flow cytometric analysis to look for subgenomic populations of cells, and by labeling cells with annexin V-FITC (commercially available from Boehringer Mannheim) in substantial accordance with the instructions provided by the manufacturer, followed by flow cytometric analysis on a FACScan Flow Cytometer (commercially available from Becton Dickinson).

[3] = test system: RKO cells; conditions: for Percent Annexin V Positive Staining: 26 hours post treatment
Description: as §1, §2, §3, §4, §5

[4] = test system: SK-Hep1 cells; conditions: for Percent Annexin V Positive Staining: 26 hours post treatment
Description: as §1, §2, §3, §4, §5

[5] = test system: A549 cells; conditions: 26 hours post treatment
Description: as §2, §4, §5

[6] = test system: Hep3B cells; conditions: for Percent Annexin V Positive Staining: 26 hours post treatment
Description: as §2, §4, §5

[7] = test system: NCI-H596 cells; conditions: CI-1 treatment; p53 mutated lung cell line
Description: as §2, §4, §5

[8] = 10 μM CI-1, 17 hours post treatment

## CCCC[C@@H](C=O)NC(=O)[C@H](CC(C)C)NC(=O)[C@H](CC(C)C)NC(C)=O [CI-1, N-acetyl-leu-leu-norleucinal] (Ac-Leu-Leu-[Nle]-aldehyde)
[1]; [8]
  Percentage of Cells Undergoing Apoptosis: 7%
[1]; 10 μM CI-1 alone, 42 hours post-treatment
  annexin V staining: 3%
[1]; CI-1 10 μM
  Percent Annexin V Positive Staining: 27%
[1]; CI-1 20 μM
  Percent Annexin V Positive Staining: 27%
[1]; CI-1 30 μM
  Percent Annexin V Positive Staining: 33%
[1]; CI-1 40 μM
  Percent Annexin V Positive Staining: 20%
[1]; CI-1 50 μM
  Percent Annexin V Positive Staining: 21%
[1]; treatment with 10 μM CI-1 at 42 hours
  decrease in the particles/ml of rAd-p53 needed to induce approximately 50% cell death: approximately two log decrease
[2]; [8]
  Percentage of Cells Undergoing Apoptosis: 15%
[2]; CI-1 10 μM
  Percent Annexin V Positive Staining: 15%
[2]; CI-1 20 μM
  Percent Annexin V Positive Staining: 17%
[2]; CI-1 30 μM
  Percent Annexin V Positive Staining: 17%
[2]; CI-1 50 μM
  Percent Annexin V Positive Staining: 18%
[3]; CI-1 10 μM
  Percent Annexin V Positive Staining: 13%
[3]; CI-1 20 μM
  Percent Annexin V Positive Staining: 52% and 33%
[3]; CI-1 50 μM
  Percent Annexin V Positive Staining: 57%
[3]; [20 μM] CI-1, 17 hours post treatment
  Percentage of Cells Undergoing Apoptosis: 13%
[4]; CI-1 10 μM
  Percent Annexin V Positive Staining: 32%
[4]; CI-1 20 μM
  Percent Annexin V Positive Staining: 66%
[4]; CI-1 30 μM
  Percent Annexin V Positive Staining: 73%
[4]; CI-1 40 μM
  Percent Annexin V Positive Staining: 75%
[4]; CI-1 50 μM
  Percent Annexin V Positive Staining: 73%
[4]; [5 μM] CI-1, 17 hours post treatment
  Percentage of Cells Undergoing Apoptosis: 11%
[5]; CI-1 10 μM
  Percent Annexin V Positive Staining: 6%
[5]; CI-1 20 μM
  Percent Annexin V Positive Staining: 5%
[5]; CI-1 50 μM
  Percent Annexin V Positive Staining: 18%
[6]; CI-1 20 μM
  Percent Annexin V Positive Staining: 36%
[6]; CI-1 50 μM
  Percent Annexin V Positive Staining: 32%
[6]; highest concentration of inhibitor (50 μM), p53 null
  increase in the percentage of apoptotic cells: no increase
[7]
  increase in the percent of cells annexin V positive in response to treatment: no increase

Reference: patent publication US7001770B1, “Calpain inhibitors and their applications” (priority 1998, dated 2006)
